Assay results taken from patent US20260000642A1 (Tay Therapeutics Limited, priority 2022, published 2026).
One block for each molecule: values may come before it.

Tests used:
[1] = Sprague-Dawley rat pharmacokinetics (IV and PO); assay type: in vivo; settings: male Sprague-Dawley rats, cassette mode, Method 1; for IV T1/2: IV 1 mg/kg; for PO F (%) / bioavailability: PO 5 mg/kg (IV 1 mg/kg); for bioavailability: rat, plasma, read-out: PO F (%)
Source text: BET protein inhibitors with a long half-life and good oral bioavailability in in vivo DMPK parameters are promising oral drug candidates. Some of the exemplary compounds of the current disclosure have a long half-life and good oral bioavailability in in vivo DMPK parameters in the Sprague-Dawley rat following intravenous (IV) and oral (PO) dosing. The experimental methods and results (Table 5) are provided hereinafter.
Sprague-Dawley Rat Pharmacokinetics, Method 1
Compounds were formulated in 5% DMSO, 40% PEG-400, 55% Milli-Q water at a concentration of 0.2 mg/mL for IV and at 0.5 mg/mL for PO. Two male Sprague-Dawley rats per arm were dosed with up to 5 compounds in cassette mode, which each compound being dosed at 1 mg/kg IV and 5 mg/kg PO. Blood was sampled at various timepoints and plasma isolated. 50 μL of plasma with 5 μL of blank Sprague-Dawley rat plasma were added to 200 μL of acetonitrile containing IS mixture. The samples were vortexed for 30 s. After centrifugation at 4 degrees Celsius, 3900 rpm for 15 min, the supernatant was diluted 3 times with water. 20 μL of diluted supernatant was injected into the LC/MS/MS system for quantitative analysis and concentration of analyte determined by comparison with matrix matched standard curve. WinNonlin (Phoenix™, version 8.3) or other similar software may be used for pharmacokinetic calculations.

[2] = system: collagen-induced arthritis in Lewis rats; experiment: Collagen-induced arthritis (CIA) model in rats: body weight, paw volume, clinical scores, clinical observations; settings: for Average animal paw volume percent change / Average detailed clinical score, left forelimb / Average detailed clinical score, left hind limb / Average detailed clinical score, right forelimb / Average detailed clinical score, right hind limb / Average detailed clinical score, score / Mean overall clinical score ± SD / animals showing signs of disease (of 8): CIA rats; for Mean animal paw volume (mL) ± SD: group mean, CIA + reference compound (Groups 3, 4); for animals showing signs of disease (of 8): daily P.O. As to Detailed Clinical Scores, left forelimb: key of the grades not given here. As to Detailed Clinical Scores, left hind limb: key of the grades not given here. As to Detailed Clinical Scores, right forelimb: key of the grades not given here. As to Detailed Clinical Scores, right hind limb: key of the grades not given here. As to Detailed Clinical Scores, score: key of the grades not given here.
[3] = system: collagen-induced arthritis in Lewis rats; experiment: CIA model: histopathologic analysis of H&E-stained hind limbs; assay type: in vivo, Lewis rat; settings: CIA rats
Source text: Hind limbs were collected following euthanasia, with the left limb being used for H&E staining.
H&E-stained slides of designated tissues from animals were transferred to an independent pathologist for microscopic evaluation (SPFBio). Samples were assigned the histologic grades based on the severity of change from tissue where CIA was not induced. Histology grades assigned were as follows: grade 1 (minimal change), grade 2 (mild change), grade 3 (moderate change), grade 4 (marked change), and grade 5 (severe change).
Moderate inflammation was also associated with increased edema fluid, fibrin, and cellular debris. Marked mixed cell inflammation was characterized by dense, widespread accumulations of neutrophils and macrophages with lesser number of lymphocytes within one or more joint spaces, synovium and periarticular soft tissues. Marked inflammation was also associated with abundant edema fluid, fibrin, and cellular debris.
Marked granulation tissue (pannus) was associated with inflammation and was characterized by widespread fibrovascular connective tissue that expanded/replaced the periarticular soft tissues of one or more joints, extended into/expanded joint spaces, was contiguous with areas of erosion/ulcer in articular cartilage and/or increased eroded surface of bone, and variably extended along the diaphysis.
Instances of minimal increased eroded surface were not associated with fragments of bone contiguous and/or surrounded by granulation tissue. […] In some areas, increased eroded surfaces were contiguous with areas of erosion/ulcer in the articular cartilages. Instance of marked increased eroded surface were often associated with fragments of bone contiguous with and/or surrounded by granulation tissue.
This observation was typically most pronounced at joint margins (transition zone). The ulceration was often associated with inflammation and granulation tissue extending through the defect to the subchondral bone.
Marked increased periosteal bone (periosteal bone formation) was characterized by extensive areas of increased bone matrix and numerous prominent osteoblasts lining trabecular surfaces along the metaphysis and/or diaphysis of one or more bones. In some areas, increased periosteal bone was contiguous with increased eroded surface and/or erosion/ulcer at articular cartilage.

SMILES: CNC(=O)c1[nH]c(C(=O)N[C@H]2CC[C@H](O)CC2)cc1OC(C)c1ccc(Cl)cc1F (single isomer, unassigned) [Example 38, 3-(1-(4-chloro-2-fluorophenyl)ethoxy)-N^5-(trans-4-hydroxycyclohexyl)-N^2-methyl-1H-pyrrole-2,5-dicarboxamide]
- IV T1/2 [1]: 84 min
- PO F (%) [1]: 66%

SMILES: CNC(=O)c1[nH]c(C(=O)N[C@H]2CC[C@H](O)CC2)cc1OC(C)c1ccccc1 (single isomer, unassigned) [Example 98, N^5-(trans-4-hydroxycyclohexyl)-N^2-methyl-3-(1-phenylethoxy)-1H-pyrrole-2,5-dicarboxamide]
- bioavailability [1]: 31%

SMILES: CNC(=O)c1[nH]c(C(=O)NC2CCC2)cc1OC(C)c1ccccc1 (single isomer, unassigned) [Example 102, N^5-cyclobutyl-N^2-methyl-3-(1-phenylethoxy)-1H-pyrrole-2,5-dicarboxamide]
- bioavailability [1]: 13%

SMILES: C[C@@H]1C[C@H]2[C@@H]3CCC4=CC(=O)C=C[C@]4(C)[C@@]3(F)[C@@H](O)C[C@]2(C)[C@@]1(O)C(=O)CO [Dex]
- Average animal paw volume percent change ([2]; Day 0, L hind paw): 0.00%
- Mean animal paw volume (mL) ± SD ([2]; Day 0, L paw): 1.33 mL
- Average animal paw volume percent change ([2]; Day 0, R hind paw): 0.00%
- Mean animal paw volume (mL) ± SD ([2]; Day 0, R paw): 1.33 mL
- Average detailed clinical score, left forelimb ([2]; Day 0): 0.00
- Average detailed clinical score, left hind limb ([2]; Day 0): 0.00
- Average detailed clinical score, right forelimb ([2]; Day 0): 0.00
- Average detailed clinical score, right hind limb ([2]; Day 0): 0.00
- Average detailed clinical score, score ([2]; Day 0): 0.00
- Mean overall clinical score ± SD ([2]; Day 0): 0 ± 0
- Mean animal paw volume (mL) ± SD ([2]; Day 6, L paw): 1.29 mL
- Mean animal paw volume (mL) ± SD ([2]; Day 6, R paw): 1.29 mL
- Average detailed clinical score, left forelimb ([2]; Day 6): 0.00
- Average detailed clinical score, left hind limb ([2]; Day 6): 0.00
- Average detailed clinical score, right forelimb ([2]; Day 6): 0.00
- Average detailed clinical score, right hind limb ([2]; Day 6): 0.00
- Average detailed clinical score, score ([2]; Day 6): 0.00
- Mean overall clinical score ± SD ([2]; Day 6): 0 ± 0
- Mean animal paw volume (mL) ± SD ([2]; Day 12, L paw): 1.27 mL
- Mean animal paw volume (mL) ± SD ([2]; Day 12, R paw): 1.26 mL
- Average detailed clinical score, left forelimb ([2]; Day 12): 0.00
- Average detailed clinical score, left hind limb ([2]; Day 12): 0.00
- Average detailed clinical score, right forelimb ([2]; Day 12): 0.00
- Average detailed clinical score, right hind limb ([2]; Day 12): 0.00
- Average detailed clinical score, score ([2]; Day 12): 0.00
- Mean overall clinical score ± SD ([2]; Day 12): 0 ± 0
- Mean animal paw volume (mL) ± SD ([2]; Day 13, L paw): 1.28 mL
- Mean animal paw volume (mL) ± SD ([2]; Day 13, R paw): 1.28 mL
- Average detailed clinical score, left forelimb ([2]; Day 13): 0.00
- Average detailed clinical score, left hind limb ([2]; Day 13): 0.00
- Average detailed clinical score, right forelimb ([2]; Day 13): 0.00
- Average detailed clinical score, right hind limb ([2]; Day 13): 0.00
- Average detailed clinical score, score ([2]; Day 13): 0.00
- Mean overall clinical score ± SD ([2]; Day 13): 0 ± 0
- Average animal paw volume percent change ([2]; Day 14, L hind paw): −4.60%
- Mean animal paw volume (mL) ± SD ([2]; Day 14, L paw): 1.27 mL
- Mean animal paw volume (mL) ± SD ([2]; Day 14, R paw): 1.26 mL
- Average detailed clinical score, left forelimb ([2]; Day 14): 0.00
- Average detailed clinical score, left hind limb ([2]; Day 14): 0.00
- Average detailed clinical score, right forelimb ([2]; Day 14): 0.00
- Average detailed clinical score, right hind limb ([2]; Day 14): 0.00
- Average detailed clinical score, score ([2]; Day 14): 0.00
- Mean overall clinical score ± SD ([2]; Day 14): 0 ± 0
- Mean animal paw volume (mL) ± SD ([2]; Day 15, L paw): 1.26 mL
- Mean animal paw volume (mL) ± SD ([2]; Day 15, R paw): 1.26 mL
- Average detailed clinical score, left forelimb ([2]; Day 15): 0.00
- Average detailed clinical score, left hind limb ([2]; Day 15): 0.00
- Average detailed clinical score, right forelimb ([2]; Day 15): 0.00
- Average detailed clinical score, right hind limb ([2]; Day 15): 0.00
- Average detailed clinical score, score ([2]; Day 15): 0.00
- Mean overall clinical score ± SD ([2]; Day 15): 0 ± 0
- Mean animal paw volume (mL) ± SD ([2]; Day 18, L paw): 1.29 mL
- Mean animal paw volume (mL) ± SD ([2]; Day 18, R paw): 1.29 mL
- Average detailed clinical score, left forelimb ([2]; Day 18): 0.00
- Average detailed clinical score, left hind limb ([2]; Day 18): 0.00
- Average detailed clinical score, right forelimb ([2]; Day 18): 0.00
- Average detailed clinical score, right hind limb ([2]; Day 18): 0.00
- Average detailed clinical score, score ([2]; Day 18): 0.00
- Mean overall clinical score ± SD ([2]; Day 18): 0 ± 0
- Mean animal paw volume (mL) ± SD ([2]; Day 19, L paw): 1.29 mL
- Mean animal paw volume (mL) ± SD ([2]; Day 19, R paw): 1.28 mL
- Average detailed clinical score, left forelimb ([2]; Day 19): 0.00
- Average detailed clinical score, left hind limb ([2]; Day 19): 0.00
- Average detailed clinical score, right forelimb ([2]; Day 19): 0.00
- Average detailed clinical score, right hind limb ([2]; Day 19): 0.00
- Average detailed clinical score, score ([2]; Day 19): 0.00
- Mean overall clinical score ± SD ([2]; Day 19): 0 ± 0
- Mean animal paw volume (mL) ± SD ([2]; Day 21, L paw): 1.28 mL
- Mean animal paw volume (mL) ± SD ([2]; Day 21, R paw): 1.29 mL
- Average detailed clinical score, left forelimb ([2]; Day 21): 0.00
- Average detailed clinical score, left hind limb ([2]; Day 21): 0.00
- Average detailed clinical score, right forelimb ([2]; Day 21): 0.00
- Average detailed clinical score, right hind limb ([2]; Day 21): 0.00
- Average detailed clinical score, score ([2]; Day 21): 0.00
- Mean overall clinical score ± SD ([2]; Day 21): 0 ± 0

SMILES: CNC(=O)c1cc(C(=O)NC2CC2)cn(Cc2ccccc2)c1=O [GSK620]
- erosion/ulcer in the articular cartilage ([3]; daily P.O. (Group 4)): mild to moderate
- granulation tissue (pannus) ([3]; daily P.O. (Group 4)): mild to moderate
- increased eroded surface of bone (bone resorption) ([3]; daily P.O. (Group 4)): minimal to moderate
- increased periosteal bone (periosteal bone formation) ([3]; daily P.O. (Group 4)): mild to moderate
- mixed cell inflammation ([3]; daily P.O. (Group 4)): moderate
- pathologic observations after microscopic evaluation (overall) ([3]; daily P.O. for 21 days): at a lower level relative to samples from animals in the CIA-induced group
- animals showing signs of disease (of 8) ([2]; day 12): No animals
- animals showing signs of disease (of 8) ([2]; day 13): 1/8
- animals showing signs of disease (of 8) ([2]; day 14): 5/8
- animals showing signs of disease (of 8) ([2]; day 15): 7/8
- animals showing signs of disease (of 8) ([2]; day 18): all animals
- Detailed Clinical Scores, left forelimb ([2]; Day 0, CIA, per animal ID): 0
- Detailed Clinical Scores, left hind limb ([2]; Day 0, CIA, per animal ID): 0
- Detailed Clinical Scores, right forelimb ([2]; Day 0, CIA, per animal ID): 0
- Detailed Clinical Scores, right hind limb ([2]; Day 0, CIA, per animal ID): 0
- Detailed Clinical Scores, score ([2]; Day 0, CIA, per animal ID): 0
- Detailed Clinical Scores, left forelimb ([2]; Day 6, CIA, per animal ID): 0
- Detailed Clinical Scores, right forelimb ([2]; Day 6, CIA, per animal ID): 0
- Detailed Clinical Scores, left forelimb ([2]; Day 12, CIA, per animal ID): 0
- Detailed Clinical Scores, right forelimb ([2]; Day 12, CIA, per animal ID): 0

Second part, the molecule after the results:

- IV T1/2 [1]: 66 min
- PO F (%) [1]: 30%
SMILES: CCNC(=O)c1cc(OC(C)c2ccc(Cl)cc2)c(C(=O)NC)[nH]1 (single isomer, unassigned) [Example 18, 3-(1-(4-chlorophenyl)ethoxy)-N^5-ethyl-N^2-methyl-1H-pyrrole-2,5-dicarboxamide]

- IV T1/2 [1]: 24 min
- PO F (%) [1]: 46%
SMILES: CCNC(=O)c1cc(OC(C)c2ccccc2F)c(C(=O)NC)[nH]1 (single isomer, unassigned) [Example 20, N^5-ethyl-3-(1-(2-fluorophenyl)ethoxy)-N^2-methyl-1H-pyrrole-2,5-dicarboxamide]

- IV T1/2 [1]: 18 min
- PO F (%) [1]: 69%
SMILES: CCNC(=O)c1cc(OC(C)c2ccc(Cl)cc2F)c(C(=O)NC)[nH]1 (single isomer, unassigned) [Example 41, 3-(1-(4-chloro-2-fluorophenyl)ethoxy)-N^5-ethyl-N^2-methyl-1H-pyrrole-2,5-dicarboxamide]
